From patent US8207108B2, “Stabilizing composition” (DSM IP Assets B.V., priority 2005, dated 2012) come the findings set out here.

Common to all, as to format: physicochemical
Series [1] can be described thus: Solubility of stabilizer in water/ethanol mixture as found in perfumes (appearance). To be noted: 0.1 wt. % stabilizer in water/ethanol (96%) 53.9/46 wt. %. The source says: An often occurring problem in the stabilization of colorants, dyes, fragrances and active ingredients is the solubility respectively the crystallization of the stabilizer/stabilizing composition in the final product form.

The nature of series [2]: Color stabilization in blue liquid soap, irradiated with 100 MED, visual PANTONE color. As to conditions: irradiated 100 MED. The protocol: (§1) Basic formulation of the liquid soap:
(§2) The liquid soaps containing different colorants were irradiated with 100 MED and the color was determined visually according to Tints; PANTONE Color Tint Selector, The PANTONE Library of Color.
Blue liquid soap colored with FD&C Blue 1 W 092 (CI 42090)

A short description of series [3]: Color stabilization in violet liquid soap, irradiated with 100 MED, visual PANTONE color. To be noted: irradiated 100 MED. The protocol: as §1, §2
Series [4] is described as follows: Color stabilization in green liquid soap, irradiated with 100 MED, visual PANTONE color. As to conditions: irradiated 100 MED. The method, then:
as §1, §2
Green liquid soap colored with 0.9 ppm Green vent W 7003 (CI 61570)

Setting [5] is: 0.1 wt. % stabilizer, blank non irradiated 70% Tint.

Consider `O=C(c1ccc(O)cc1O)c1ccc(O)cc1O` [Benzophenon-2], for which, in series [1], the Appearance entry is on record as “Precipitate”.
For the molecule `O=C(c1ccccc1)c1ccc(O)cc1O` [Benzophenone-1, benzophenone-1], the “Index (PANTONE tint)” value in series [2] (0.1 wt. % stabilizer, blank non irradiated 50% Tint) worked out at 50% Tint; in series [3] (setting [5]) it was 30% Tint. Moreover, the “Color (PANTONE)” value in series [2] (FD&C Blue 1 W 092, 0.1 wt. % stabilizer, blank non irradiated Pantone 3125C) is on record as “Pantone 3125C”; in series [3] (3.1 ppm Vert Turquise W 7003 and 0.5 ppm FD&C Red 40WO93, 0.1 wt. % stabilizer, blank non irradiated Pantone 494C), “Pantone 495C”.
For the molecule `COc1cc(O)c(C(=O)c2ccccc2)cc1S(=O)(=O)O` [Benzophenone-4, benzophenone-4], in series [4] (setting [5]), the “Index (PANTONE tint)” value stood at 70% Tint. Further, the “Color (PANTONE)” value in series [4] (0.9 ppm Green vent W 7003, 0.1 wt. % stabilizer, blank non irradiated Pantone 367C) is “Pantone 367C”.
As to `COc1ccc(C(=O)c2ccccc2)c(O)c1` [Benzophenon-3], the Appearance result in series [1] is listed as “Turbid”.
